Measured values: patent US7626044B2, “Triptolide derivatives and their uses” (priority 2002, dated 2009)
Like-named read-outs stand apart in the source and are kept apart here.

Tests used:
rat adjuvant arthritis [1] = test: Rat adjuvant arthritis (AA), therapeutic effect; assay type: in vivo; settings: i.p. for 14 days from day 19; especially at 2 mg/Kg/d
Protocol: Rats were immunized on day 0 by intradermal injection of Complete Freund's adjuvant (CFA), containing 10 mg heat-inactivated BCG in 1 ml paraffin oil, into the left hind paw in 0.1 ml for each rat. Inflammatory polyarthritis was induced in all immunized rats. Swelling in left paw and polyarthritic symptoms were seen from day 1, lasted for 4 days, and then diminished. Swelling in the same paw occurred again from day 8, reached the peak at day 16. The secondary symptoms, including the right hind paw swelling and polyarthritis, were seen from day 12. The polyarthritis severity was graded on a scale of 0-4: 0=no swelling; 1=isolated phalanx joint involvement; 2=involvement of phalanx joint and digits; 3=involvement of the entire region down to the ankle; 4=involvement of entire paw, including ankle.
Right hind paw volume was determined before immunization (basic value, day 0) and repeated every 3 days. Animals were sacrificed on day 15, and thymus and spleen were harvested for thymus and spleen index assessment. Result: The secondary symptoms were established when the right hind paw severely swelled 19 days after adjuvant injection. […] Comparing with AA model rat, LLDT-8 treatment, especially at dose of 2 mg/Kg/d, markedly withdrew the symptoms (FIG. 16 and FIG. 17).

[2] = tested on: HL-60 (human myeloblastic); test: Tumor cell proliferation, HL-60; assay type: cell-based; settings: read-out: Inhibitory effect on tumor cell proliferation IC50
rat adjuvant arthritis [3] = test: Rat adjuvant arthritis (AA), drug prevention; assay type: in vivo
Protocol: SD rats were immunized on day 0 by intradermal injection of Complete Freund's adjuvant (CFA), containing 10 mg heat-inactivated BCG in 1 ml paraffin oil, into the left hind paw in 0.1 ml for each rat. Right hind paw volume was determined before immunization (basic value, day 0) and repeated every 4 days from day 12. The polyarthritis severity was graded on a scale of 0-4: 0=no swelling; 1=isolated phalanx joint involvement; 2=involvement of phalanx joint and digits; 3=involvement of the entire region down to the ankle; 4=involvement of entire paw, including ankle. The maximum joint score was 16 for each rat.
Lymphocyte proliferation assay: Splenocytes were prepared aseptically from AA rat at day 28 and resuspended in RPMI-1640 medium supplemented with 10% fetal bovine serum.
5×10^5 cells each well were inoculated into 96-well plate with ConA or LPS in a final volume of 200 μl. Cells were cultured in 5% CO2 incubator at 37° C. for 48 h. Cells were pulsed with 1.9×10^10 Bq/well of [^3H]-thymidine 7-8 h before harvest. After the culture finished, cells were harvested onto glass fiber filters and the incorporated radioactivity was counted by a Beta Scintillator (MicroBeta Trilux, PerkinElmer Life Sciences).

murine T lymphocytes = test: Induction of T lymphocyte apoptosis (PI staining, FACS); assay type: cell-based, mouse
Protocol: (1) The Tuf-tainer (non-adherent to cells) was pretreated with culture medium for 2 h;
(2) As that described in proliferation assay, Balb/c mice were sacrificed and their spleens were removed aseptically. A single cell suspension was prepared and resuspended in RPMI-1640 media at 5×10^6/ml.
(3) Cells were added to 5 μg/ml ConA or medium;
(4) The cells were cultured in 5% CO2 incubator at 37° C. for 24-96 h;
(5) Cells were collected and washed with PBS, centrifugated at 400 g for 10 min at 4° C.;
(6) The collected cells were shaken 10 s violently and 1 ml ice-cold 70% ethanol was added dropwise, capped and fixed overnight at […].;
(7) The cells were centrifuged at 3000 rpm for 5 min and the ethanol was removed; Incubated cells with 1 ml PI staining buffer at room temperature more than 30 min; FACs analysis was performed with 24 h.

[4] = tested on: WI-38 (human lung fibroblasts); test: Cell proliferation, WI-38; assay type: cell-based; settings: read-out: Inhibitory effect on tumor cell proliferation IC50
[5] = tested on: C57BL/6 skin allograft on BALB/c mice; test: Murine skin allograft transplantation; assay type: in vivo, mouse; settings: C57BL/6 skin to BALB/c mice; daily i.p.; preliminary results
Protocol: Full-thickness tail skin was aseptically harvested from adult C57BL/6 mice.
The skin allografts were transplanted onto the flank of adult recipient BALB/c mice.
Engrafted mice were administered LLDT-8 daily or, as a control, phosphate-buffered saline (PBS) by intraperitoneal (i.p.) injection.

[6] = tested on: collagen-induced arthritis; test: Collagen-induced arthritis in DBA/1 mice; assay type: in vivo, mouse
[7] = tested on: anti-SRBC specific antibodies production by B lymphocytes; assay type: in vivo, mouse; settings: ICR mice
[8] = tested on: MKN-28 (human gastric cancer); test: Tumor cell proliferation, MKN-28; assay type: cell-based; settings: read-out: Inhibitory effect on tumor cell proliferation IC50

Compound: CC(C)[C@]12O[C@H]1[C@@H]1O[C@]13[C@]1(O[C@H]1C[C@@]1(O)C4=C(CC[C@]31C)C(=O)OC4)[C@@H]2O [LLDT-8, (5R)-5-hydroxytriptolide]
- polyarthritic symptoms (therapeutic) (rat adjuvant arthritis [1]): effectively cured the polyarthritic symptoms
- IC50 [2]: 81 nM
- body weight decrease in AA rat (rat adjuvant arthritis [3]; LLDT-8 3, 1 and 0.2 mg/Kg/d, CsA 10 mg/Kg/d): abrogation of body weight decrease
- immune cell infiltration, synovial tissue proliferation, cartilage erosion (rat adjuvant arthritis [3]; compared with AA model group): marked decrease of immune cell infiltration, smaller degree of synovial tissue proliferation, and less cartilage erosion
- right hind paw swelling and polyarthritic symptoms (rat adjuvant arthritis [3]; i.p. day −2 to day 28, LLDT-8 3, 1 and 0.2 mg/Kg/d, CsA 10 mg/Kg/d): diminished the right hind paw swelling and polyarthritic symptoms
- polyarthritis severity (rat adjuvant arthritis [3]; score 0-4 per paw): amelioration of established polyarthritis
- proliferation of B splenocytes induced by LPS (rat adjuvant arthritis [3]; splenocytes from AA rat at day 28): inhibited the proliferation of B splenocytes induced by LPS
- CD4+ and CD8+ T lymphocytes percentage (murine T lymphocytes): reduced CD4^+ and CD8^+ T lymphocytes percentage
- apoptosis of murine T lymphocytes (murine T lymphocytes; at concentration below or near the IC50 for lymphocyte cytotoxicity): induced the apoptosis of murine T lymphocytes
- IC50 [4]: 480 nM
- murine allograft survival [5]: prolonged murine allograft survival
- suppressive effect on CIA at lower doses ([6]; 0.2 and 0.04 mg/Kg/d, dose-dependent): Suppressive effect was also observed
- Anti-collagen specific antibody levels ([6]; compared with untreated CIA mice): reduced dose-dependently
- severity and incidence of CIA ([6]; i.p. 1 mg/Kg/d, compared with untreated CIA mice): effectively reduced severity and incidence of CIA
- QHS OD value ([7]; Table 11, i.p. 4 times, dosage 0.04 mg/kg, control 0.208): 0.175
- C3 ([7]; Table 11, i.p. 4 times, dosage 0.04 mg/kg, control 16.8): 19.5 μg/10 μl
- Body weight ([7]; Table 11, i.p. 4 times, dosage 0.04 mg/kg, control 23.5): 23.0 g
- Thymus ([7]; Table 11, i.p. 4 times, dosage 0.04 mg/kg, control 39.6): 32.1 mg
- Spleen ([7]; Table 11, i.p. 4 times, dosage 0.04 mg/kg, control 66.4): 74.8 mg/10 g
- Total IgG ([7]; Table 11, i.p. 4 times, dosage 0.04 mg/kg, control 185.5): 176.6 μg/10 μl
- QHS OD value ([7]; Table 11, i.p. 4 times, dosage 0.2 mg/kg, control 0.208): 0.162
- C3 ([7]; Table 11, i.p. 4 times, dosage 0.2 mg/kg, control 16.8): 19.7 μg/10 μl
- Body weight ([7]; Table 11, i.p. 4 times, dosage 0.2 mg/kg, control 23.5): 23.1 g
- Thymus ([7]; Table 11, i.p. 4 times, dosage 0.2 mg/kg, control 39.6): 36.9 mg
- Spleen ([7]; Table 11, i.p. 4 times, dosage 0.2 mg/kg, control 66.4): 76.3 mg/10 g
- Total IgG ([7]; Table 11, i.p. 4 times, dosage 0.2 mg/kg, control 185.5): 165.9 μg/10 μl
- QHS OD value ([7]; Table 11, i.p. 4 times, dosage 1 mg/kg, control 0.208): 0.158
- C3 ([7]; Table 11, i.p. 4 times, dosage 1 mg/kg, control 16.8): 19.4 μg/10 μl
- Body weight ([7]; Table 11, i.p. 4 times, dosage 1 mg/kg, control 23.5): 22.3 g
- Thymus ([7]; Table 11, i.p. 4 times, dosage 1 mg/kg, control 39.6): 36.6 mg
- Spleen ([7]; Table 11, i.p. 4 times, dosage 1 mg/kg, control 66.4): 59.6 mg/10 g
- Total IgG ([7]; Table 11, i.p. 4 times, dosage 1 mg/kg, control 185.5): 182.9 μg/10 μl
- QHS OD value ([7]; Table 12, p.o. 4 times, dosage 0.04 mg/kg, control 0.38): 0.23
- C3 ([7]; Table 12, p.o. 4 times, dosage 0.04 mg/kg, control 7.9): 6.7 μg/10 μl
- Body weight ([7]; Table 12, p.o. 4 times, dosage 0.04 mg/kg, control 23.4): 23.0 g
- Thymus ([7]; Table 12, p.o. 4 times, dosage 0.04 mg/kg, control 28.8): 28.7 mg
- Spleen ([7]; Table 12, p.o. 4 times, dosage 0.04 mg/kg, control 55.7): 69.0 mg/10 g
- Total IgG ([7]; Table 12, p.o. 4 times, dosage 0.04 mg/kg, control 117): 123 μg/10 μl
- QHS OD value ([7]; Table 12, p.o. 4 times, dosage 0.2 mg/kg, control 0.38): 0.34
- C3 ([7]; Table 12, p.o. 4 times, dosage 0.2 mg/kg, control 7.9): 7.9 μg/10 μl
- Body weight ([7]; Table 12, p.o. 4 times, dosage 0.2 mg/kg, control 23.4): 24.0 g
- Thymus ([7]; Table 12, p.o. 4 times, dosage 0.2 mg/kg, control 28.8): 36.6 mg
- Spleen ([7]; Table 12, p.o. 4 times, dosage 0.2 mg/kg, control 55.7): 61.6 mg/10 g
- Total IgG ([7]; Table 12, p.o. 4 times, dosage 0.2 mg/kg, control 117): 116 μg/10 μl
- QHS OD value ([7]; Table 12, p.o. 4 times, dosage 1 mg/kg, control 0.38): 0.24
- C3 ([7]; Table 12, p.o. 4 times, dosage 1 mg/kg, control 7.9): 6.8 μg/10 μl
- Body weight ([7]; Table 12, p.o. 4 times, dosage 1 mg/kg, control 23.4): 23.0 g
- Thymus ([7]; Table 12, p.o. 4 times, dosage 1 mg/kg, control 28.8): 32.5 mg
- Spleen ([7]; Table 12, p.o. 4 times, dosage 1 mg/kg, control 55.7): 63.7 mg/10 g
- Total IgG ([7]; Table 12, p.o. 4 times, dosage 1 mg/kg, control 117): 118 μg/10 μl
- IC50 [8]: 390 nM
